According to ChEMBL document CHEMBL2021775, “Discovery of flavonoid derivatives as anti-HCV agents via pharmacophore search combining molecular docking strategy” (Eur J Med Chem, 2012):
Active and inactive are the calls of the source. The rule behind the calls is not given here.

Tests used:
Hepatitis C virus [1] = test: Antiviral activity against HCV JFH-1 J399EM infected in Human Huh7.5.1 cells assessed as suppression of viral replication after 72 hrs by EGFP assay; type: functional, organism-based, Hepacivirus hominis; settings: Huh-7, 72 h
[2] = Cytotoxicity against human Huh7.5.1 cells by MTT assay; type: cell-based, Huh-7
Hepatitis C virus [3] = test: Antiviral activity against HCV genotype 2a […] in Human Huh7.5.1 replicon cells assessed as suppression of viral replication after 72 hrs by luciferase reporter gene assay; type: functional, organism-based, Hepacivirus hominis; settings: Huh-7, 72 h
Hepatitis C virus [4] = test: Inhibition of HCV 1b NS5B polymerase; design: species or system Hepatitis C virus subtype 1b
Hepatitis C virus [5] = test: Antiviral activity against HCV JFH-1 J399EM infected in Human Huh7.5.1 cells assessed as suppression of viral replication at 50 uM after 72 hrs by EGFP assay; type: functional; settings: for inhibition: Hepacivirus hominis, Huh-7; for inhibition at 50 µM: Huh-7, 72 h
Hepatitis C virus [6] = test: Inhibition of HCV 1b NS5B polymerase at 100 uM; design: species or system Hepatitis C virus subtype 1b

Question: What does the source list for `O=c1c(-c2ccc(O)cc2)coc2cc(O)cc(O)c12` [GENISTEIN]?
Answer: EC50 (Hepatitis C virus [1]): 14.4 µM; CC50 [2]: > 50 µM

Question: With `COc1c(O)cc2oc(-c3ccc(O)cc3)cc(=O)c2c1O` [HISPIDULIN] as the compound, how does the EC50 (Hepatitis C virus [1]) read?
Answer: 36.3 µM

Question: And the CC50 [2]?
Answer: > 50 µM

Question: With `O=c1cc(-c2ccc(O)c(O)c2)oc2cc(O)cc(O)c12` [LUTEOLIN] as the compound, how does the EC50 (Hepatitis C virus [3]) read?
Answer: 6.6 µM

Question: And the EC50 (Hepatitis C virus [1])?
Answer: 4.7 µM

Question: What about the IC50 (Hepatitis C virus [4]) of the same compound?
Answer: 1.12 µM

Question: And the CC50 [2]?
Answer: > 50 µM

Question: What does the source list for `O=c1c(O)c(-c2ccc(O)c(O)c2)oc2c(O)c(O)cc(O)c12` [GOSSYPETIN]?
Answer: EC50 (Hepatitis C virus [1]): 47 µM; CC50 [2]: > 50 µM

Question: With `O=c1cc(-c2ccc(O)c(-c3c(O)cc(O)c4c(=O)cc(-c5ccc(O)cc5)oc34)c2)oc2cc(O)cc(O)c12` [AMENTOFLAVONE] as the compound, how does the CC50 [2] read?
Answer: > 50 µM

Question: And the inhibition (Hepatitis C virus [5])?
Answer: inactive

Question: Which results are given for `COc1ccc(-c2oc3cc(O)cc(O)c3c(=O)c2O)cc1` [KAEMPFERIDE]?
Answer: CC50 [2]: > 50 µM; inhibition at 50 µM (Hepatitis C virus [5]): 27.6%

Question: Which CC50 [2] does the source give for `O=c1cc(-c2ccc(O)c(O)c2)oc2cc(O)c([C@@H]3O[C@H](CO)[C@@H](O)[C@H](O)[C@H]3O)c(O)c12` [ISOORIENTIN] here?
Answer: > 50 µM

Question: And the inhibition (Hepatitis C virus [5])?
Answer: inactive

Question: Which EC50 (Hepatitis C virus [1]) does the source give for `O=C1c2cccc(O)c2C(=O)c2c(O)cc(CO)cc21` [ALOE-EMODIN] here?
Answer: 20.8 µM

Question: And the CC50 [2]?
Answer: > 50 µM

Question: Which results are given for `O=c1c(O)c(-c2ccc(O)cc2)oc2cc(O)cc(O)c12` [KAEMPFEROL]?
Answer: CC50 [2]: > 50 µM; inhibition at 50 µM (Hepatitis C virus [5]): 51.9%

Question: For `COc1cc(-c2oc3cc(O)cc(O)c3c(=O)c2O)ccc1O` [ISORHAMNETIN], which CC50 [2] is on record?
Answer: > 50 µM

Question: And the inhibition at 50 µM (Hepatitis C virus [5])?
Answer: 47.3%

Question: Which CC50 [2] does the source give for `O=c1c(O)c(-c2ccc(O)c(O)c2)oc2cc(O)ccc12` [FISETIN] here?
Answer: > 50 µM

Question: And the inhibition at 50 µM (Hepatitis C virus [5])?
Answer: 26.4%

Question: Which inhibition at 100 µM (Hepatitis C virus [6]) does the source give for `O=c1cc(-c2ccccc2)oc2cc(O)cc(O)c12` [CHRYSIN] here?
Answer: 30%

Question: And the CC50 [2]?
Answer: > 50 µM

Question: And the inhibition at 50 µM (Hepatitis C virus [5])?
Answer: 51%

Question: Which results are given for `O=c1cc(-c2ccc(O)cc2)oc2cc(O)cc(O)c12` [APIGENIN]?
Answer: EC50 (Hepatitis C virus [3]): 12 µM; EC50 (Hepatitis C virus [1]): 7.9 µM; CC50 [2]: > 50 µM

Question: For `O=c1c(O[C@H]2O[C@@H](CO)[C@@H](O)[C@@H](O)[C@@H]2O)c(-c2ccc(O)c(O)c2)oc2cc(O)cc(O)c12`, which CC50 [2] is on record?
Answer: > 50 µM

Question: What about the inhibition (Hepatitis C virus [5]) of the same compound?
Answer: inactive

Question: With `COc1cc(-c2oc3cc(O)cc(O)c3c(=O)c2O)cc(OC)c1O` [SYRINGETIN] as the compound, how does the EC50 (Hepatitis C virus [1]) read?
Answer: 15.5 µM

Question: What about the CC50 [2] of the same compound?
Answer: > 50 µM

Question: For `O=c1cc(-c2cc(O)c(O)c(O)c2)oc2cc(O)ccc12`, which EC50 (Hepatitis C virus [1]) is on record?
Answer: 38.5 µM

Question: And the CC50 [2]?
Answer: > 50 µM

Question: For `O=c1c(O)c(-c2ccc(O)c(O)c2)oc2cc(O)cc(O)c12` [QUERCETIN], which EC50 (Hepatitis C virus [1]) is on record?
Answer: 19.8 µM

Question: And the CC50 [2]?
Answer: > 50 µM

Question: What does the source list for `O=c1c(O)c(-c2ccc(O)cc2)oc2cccc(O)c12`?
Answer: EC50 (Hepatitis C virus [1]): 12.7 µM; CC50 [2]: > 50 µM

Question: Which results are given for `O=c1c(O)c(-c2ccc(O)cc2O)oc2cc(O)cc(O)c12` [MORIN]?
Answer: CC50 [2]: > 50 µM; inhibition at 50 µM (Hepatitis C virus [5]): 31.1%

Question: Which EC50 (Hepatitis C virus [1]) does the source give for `O=c1cc(-c2ccccc2)oc2cc(O)c(O)c(O)c12` [BAICALEIN] here?
Answer: 33.9 µM

Question: What about the CC50 [2] of the same compound?
Answer: > 50 µM

Question: For `O=c1cc(-c2ccc(O)c(O)c2)oc2c(O)c(O)ccc12`, which EC50 (Hepatitis C virus [1]) is on record?
Answer: 23.3 µM

Question: What about the CC50 [2] of the same compound?
Answer: > 50 µM

Question: Which results are given for `O=c1c(O)c(-c2cc(O)c(O)c(O)c2)oc2cc(O)cc(O)c12` [MYRICETIN]?
Answer: EC50 (Hepatitis C virus [1]): 46.9 µM; CC50 [2]: > 50 µM

Question: Which results are given for `O=c1cc(-c2cc(O)c(O)c(O)c2)oc2cc(O)cc(O)c12` [TRICETIN]?
Answer: EC50 (Hepatitis C virus [1]): 32.2 µM; CC50 [2]: > 50 µM

Question: Which CC50 [2] does the source give for `O=c1cc(-c2ccccc2O)oc2c(O)c(O)ccc12` here?
Answer: > 50 µM

Question: What about the inhibition at 50 µM (Hepatitis C virus [5]) of the same compound?
Answer: 51.9%

Question: With `O=c1c(O)c(-c2cccc(O)c2O)oc2ccc(O)cc12` as the compound, how does the CC50 [2] read?
Answer: > 50 µM

Question: And the inhibition (Hepatitis C virus [5])?
Answer: inactive

Question: For `O=c1c(O)c(-c2cc(O)c(O)cc2O)oc2ccc(O)cc12`, which CC50 [2] is on record?
Answer: > 50 µM

Question: And the inhibition at 50 µM (Hepatitis C virus [5])?
Answer: 31.1%

Question: With `COc1c(O)cc2oc(-c3ccc(O)c(O)c3)cc(=O)c2c1O` [EUPAFOLIN] as the compound, how does the EC50 (Hepatitis C virus [1]) read?
Answer: 33.1 µM

Question: And the CC50 [2]?
Answer: > 50 µM

Question: Which results are given for `O=C(/C=C/c1ccc(O)cc1)c1ccc(O)cc1O` [ISOLIQUIRITIGENIN]?
Answer: EC50 (Hepatitis C virus [1]): 36.1 µM; CC50 [2]: > 50 µM

Question: With `O=c1c(O)c(-c2ccccc2)oc2cc(O)cc(O)c12` [GALANGIN] as the compound, how does the CC50 [2] read?
Answer: > 50 µM

Question: What about the inhibition at 50 µM (Hepatitis C virus [5]) of the same compound?
Answer: 46.9%

Question: For `O=c1cc(-c2ccc(O)c(O)c2)oc2cc(O[C@@H]3O[C@H](CO)[C@@H](O)[C@H](O)[C@H]3O)cc(O)c12` [GALUTEOLIN], which CC50 [2] is on record?
Answer: > 50 µM

Question: And the inhibition (Hepatitis C virus [5])?
Answer: inactive

Question: For `O=c1c(O)c(-c2ccccc2)oc2cccc(O)c12`, which CC50 [2] is on record?
Answer: > 50 µM

Question: What about the inhibition at 50 µM (Hepatitis C virus [5]) of the same compound?
Answer: 83.7%
